{"source": "patent US20210275493A1", "about": "“IMMUNO-ONCOLOGY THERAPY USING ISOFLAVONE COMPOUNDS” (NOXOPHARM LIMITED, priority 2019, published 2021)", "key": {"[1]": {"test_system": "NPC (C17/NPC43+ve) cells, C17 spheroid", "test": "3D tumor spheroid apoptosis imaging (CellEvent Caspase-3/7)", "type": "cell-based", "protocol": "(§1) For the generation of tumor spheroids in 3D, 200 μL/well of cell suspension in culture medium was seeded at cell densities of 20,000 cells/well. NPC (C17/NPC43+ve) cells were dispensed into Nunclon Sphera 96 wells plate (Thermo Fisher Scientific). The Nunclon Sphera surface was designed to cause minimal cell attachment with minimal extracellular matrix protein binding to the plate surfaces. Plates were incubated at 37° C. and 5% CO2 in RPMI supplemented with FBS and ROCK inhibitor.\nTo mimic in vivo conditions, the cytotoxicity of idronoxil on NPC cells using three-dimensional (3D) tumor cultures was examined. The effect of increasing concentrations of idronoxil was monitored on apoptosis using fluorescent probes (non-toxic CellEvent Caspase-3/7 Green and LysoTracker Deep Red) in combination with bright-field microscopy to perform persistent real-time spheroid imaging. […] When LysoTracker was added to the spheroids, the staining pattern was complementary to that of CellEvent, with the LysoTracker constantly accumulating in the outer and presumably metabolically active layers of the spheroids."}, "[2]": {"test_system": "T cells infiltrating C17/NPC43+ve spheroids", "test": "Flow cytometry of spheroid-infiltrating T cells (IN/OUT) in NPC spheroid/PBMC coculture", "type": "cell-based", "protocol": "(§2) For flow cytometry analyses, 8 wells/condition were seeded. OUT and IN compartments were isolated by first pooling the 8 cocultures wells in eppendorf tubes. Spheroids were gently resuspended and left to sediment to the bottom of the tubes. Supernatant cell suspension constituted the non-infiltrating immune cells (=OUT). These steps were repeated twice with Phosphate Buffer Saline (PBS) in order to separate the spheroids from the non-infiltrating immune cells. Spheroids were then trypsinized to obtain a single cell suspension (=IN) and further analyzed by flow cytometry.\nDifferences in quantitative variables were analyzed by the Mann-Whitney U test when comparing 2 groups. A p value<0.05 was considered as statistically significant.\n(§3) The interactions between tumor spheroids and PBMCs through heterotypic cocultures was explored. Spheroids were generated from an NPC cell line cocultured with PBMCs obtained from healthy donors that were HLA-matched whenever possible. After coculture, lymphocyte tumor infiltration and tumor cell apoptosis were measured. The cellular compositions within infiltrated tumor spheroids by mechanically separating infiltrating cells (IN) and cells remaining in the medium (OUT) were studied. A description of the coculture experimental protocol is illustrated in FIG. 1.\nThese findings support the use of idronoxil to induce immunomodulatory responses, and in combination with conventional chemotherapies, enhance antitumor immunity. […] Finally, additionally to the above findings the inventors detected a significant reduction in PD1^+ expression in total infiltrating memory cells compared to DMSO controls (mean 48.57±5.117 vs. mean 62.06±3.066; p=0.0086; FIG. 3). In contrast, significant up-regulation in PD1^+ expression in naïve infiltrated cells upon idronoxil treatment as compared to DMSO (mean 62.10±7.049 vs. mean 43.57±3.870; p=0.0017) was found."}, "NPC cell lines": {"test_system": "NPC cell lines", "test": "In vitro exposure of NPC cell lines: T-cell chemokine expression", "type": "cell-based"}, "[3]": {"test_system": "NPC cell line spheroids cocultured with PBMCs", "test": "Coculture of NPC tumor spheroids and PBMCs: PBMC infiltration", "type": "cell-based", "protocol": "as §1, §2, §3\nAn increase in PBMCs infiltration in the tumor spheroids upon treatment was detected as early as 2 hours after the beginning of the experiment, while the number of infiltrated cells remained constant in the controls (DMSO) over 72 hours of coculture. […] Moreover, the CellEvent staining was performed on the coculture to confirm the induction of apoptosis and observed that spheroid infiltration was proportional to an active apoptosis process in tumor cells. […]"}, "[4]": {"test_system": "A549 lung adenocarcinoma spheroids with PBMCs", "test": "A549 spheroid PBMC co-culture: microscopy and FACS", "type": "cell-based, human", "protocol": "(§4) Spheroids were generated using the liquid overlay technique. Therefore, a 96 well cell culture plate (Greiner) was precoated with 1.5% (w/v) agarose. For this, 0.75 g of agarose was diluted in 50 ml PBS and boiled for 15 min in a pressure cooker at full pressure, followed by another 10 min at lowest pressure level. 50 μl of agarose solution was added to each well of the 96 well plate and allowed to cool down at RT (under a cell culture hood). Tumor cells were trypsinized and adjusted to a cell suspension of 25.000 cells/ml in medium (RPMI 1640, 10% FCS, 1% penicillin/streptomycin). The outer wells of the 96 well plates were filled with PBS, and the remaining wells were filled with 200 μl cell suspension. Cell aggregation was triggered by centrifugation of the plate at 500× g, 5 min, RT. Plates were then maintained for 5 days in an incubator (37° C., humidified atmosphere). Medium was changed every two days by careful aspiration. Spheroid size was acquired with a Carl Zeiss Axiovert microscope and diameters were determined using AxioVision 40 software.\n(§5) PBMCs were isolated from buffy coats (DRK-Blutspendedients Baden-Würtemberg-Hessen, Institut für Transfusionsmedizin and Immunhämatologie, Frankfurt am Main, Germany) using Bicoll-Hypaque gradients. Two 50 ml Leukosep® tubes (Greiner) per buffy coat were filled with 15 ml lymphocyte separation medium (Sigma Aldrich) and centrifuged at 1000×g, 1 min, RT, to place the solution below the membrane. Afterwards 30 ml human blood from buffy coats was added, tubes were filled up to 50 ml with PBS/2 mM EDTA solution, and centrifuged at 500×g, 45 min, RT without break. After density gradient centrifugation, the intermediate white layer composed of mononuclear cells was transferred into a fresh sterile 50 ml tube and washed twice with PBS/2 mM EDTA. After RBC lysis (RBC lysis buffer: 135 mM NH4Cl, 10 mM NaHCO3, 0.1 mM EDTA; for 4 min at RT, stop with PBS) cells were diluted in RPMI 1640 medium (+10% FCS, 1% penicillin/streptomycin) at 2×10^6 cells/ml.\n(§6) PBMCs were activated with 25 μl/ml CD3/CD28 T cell activator cocktail (StemCell Technologies), and 50.000 pre-activated PBMCs/well were added to spheroids. Afterwards, co-cultures were stimulated with 1 μM or 10 μM idronoxil or DMSO for 3 days. After three days, samples were either harvested for downstream analysis or treated again with 1 μM or 10 μM idronoxil or DMSO±10 μg/ml anti-PD-1 antibody (BioXCell) or the isotype control for another 3 days. Spheroid size was acquired with a Carl Zeiss Axiovert microscope and diameters were determined using AxioVision 40 software. Spheroids were harvested by transferring 5 spheroids of each group into FACS tubes (BD Biosciences), followed by centrifugation (500× g, 5 min, 4° C.). After removing the supernatant, 100 μl Accutase (Sigma Aldrich) was added to the spheroids, followed by 15 min incubation at 37° C. and generation of single cell suspensions by shearing the cell suspension repeatedly trough pipetting using 100 μl filter pipette tips. After centrifugation (500×g, 5 min, 4° C.) and removal of supernatant, cells were blocked with 80 μl of 0.5% BSA/PBS and 2 μl FcR-blocking reagent (Miltenyi Biotec) for 15 min on ice. Thereafter, cells were stained with an antibody mix consisting of anti-human CD4 PE-CF594, anti-human CD8 APC-H7, anti-human TCRab FITC, anti-human CD33 BV510, anti-human CD45 AF700, anti-human CD279 APC, and anti-human CD274 BV421 (each from BD Biosciences) antibodies for 20 min on nice in the dark. After washing with 500 μl FACS Flow (BD Biosciences), cells were resuspended in 300 μl FACS Flow, 20 μL absolute count standard (Bangs Laboratory) were added to each sample, and samples were acquired using an LSR II/Fortessa flow cytometer (BD Biosciences). All Antibodies were previously titrated to determine optimal concentrations. Antibody-capturing CompBeads (BD Biosciences) were used to create the multi-color panel compensation matrix. […]"}, "[5]": {"test": "Clinical examples: plasma concentration after daily dosing", "type": "in vivo, human", "details": "800 mg daily dosage for a period of 7 days", "protocol": "An individual presents with metastatic castration resistant prostate cancer. […] The individual has not been prior treated with an […]. The individual is given 800 mg daily dosage of idronoxil for a period of 7 days to establish a plasma concentration of 350 ng/mL of idronoxil. The individual is then administered with an anti-PD-1 antibody according to the product information. The dosage cycle is repeated twice and the individual is assessed for response to anti PD-1 therapy.\nAn individual presents with advanced melanoma, having been assessed at 12 weeks from first administration of an anti-CTLA-4 antibody as having stable disease and not having achieved a partial response. The individual is given 800 mg daily dosage of idronoxil for a period of 7 days to establish a plasma concentration of 350 ng/mL of idronoxil. The individual is then administered with an anti-CTLA-4 antibody according to the product information. The dosage cycle is repeated twice and the individual is assessed for response to anti-CTLA-4 therapy."}, "[6]": {"test_system": "MCF-7 mammary carcinoma spheroids with PBMCs", "test": "MCF-7 spheroid PBMC co-culture: microscopy and FACS", "type": "cell-based, human", "protocol": "as §4, §5, §6"}}, "note": "“Also recorded” adds a separate entry of the source."}
{"smiles": "Oc1ccc(C2=Cc3ccc(O)cc3OC2)cc1", "note": "[idronoxil, 2H-1-Benzopyran-7-0,1,3-(4-hydroxyphenyl)]", "values": [{"measurement": "IC50 values, spheroid-derived cells in 3D versus 2D conditions", "setting": "[1]; 3D vs 2D", "value": "comparable"}, {"measurement": "IC50", "setting": "[1]; C17 spheroids, 3D culture, apoptosis by CellEvent Caspase-3/7, read-out: IC50 (3D CellEvent dose-response curve)", "value": 2100, "unit": "nM"}, {"measurement": "intensity of C17 spheroid staining with CellEvent", "setting": "[1]; increasing concentrations of idronoxil", "value": "proportional to idronoxil concentrations"}, {"measurement": "double-positive (DP) T cells in the tumor structure", "setting": "[2]; CD3+ populations IN vs OUT, 72 hours", "value": "significant increase"}, {"measurement": "PD1+ expression in naïve infiltrated cells (mean)", "setting": "[2]; DMSO control 43.57±3.870, p=0.0017", "value": "62.10±7.049"}, {"measurement": "PD1+ expression in total infiltrating memory cells (mean)", "setting": "[2]; DMSO control 62.06±3.066, p=0.0086", "value": "48.57±5.117"}, {"measurement": "proportions of CD45RO+ CD27+ memory cells among infiltrating DP T cells", "setting": "[2]; compared to control", "value": "decreased proportions"}, {"measurement": "proportions of CD45RO- CD27+ naïve cells among infiltrating DP T cells", "setting": "[2]; compared to control", "value": "increased proportions"}, {"measurement": "CD62L expression of tumor-infiltrating DP T cells", "setting": "[2]; compared to control, CCR7 not reduced", "value": "pronounced reduction"}, {"measurement": "expression of T-cell chemokines", "setting": "NPC cell lines", "value": "expression of the T-cell chemokines CXCL8, 9 and 10"}, {"measurement": "time at which increase in PBMCs infiltration was detected", "setting": "[3]; after the beginning of the experiment", "value": 2, "unit": "h"}, {"measurement": "idronoxil-induced PBMC migration upon blockade of CXCL10", "setting": "[3]; neutralizing antibodies added to tumor spheroid cultures", "value": "significantly reduced"}, {"measurement": "influx of PBMC into the spheroids", "setting": "[3]; vs DMSO control, up to 72 hours of coculture", "value": "significantly increased"}, {"measurement": "3D spheroid size", "setting": "[4]; 1 μM, day 6", "value": "reduced"}, {"measurement": "3D spheroid size", "setting": "[4]; 10 μM, day 3", "value": "reduces"}, {"measurement": "immune activation (cluster formation)", "setting": "[4]; 10 μM, day 3", "value": "induces or maintains"}, {"measurement": "expression of PD1 on CD8+ T cells", "setting": "[4]; 10 μM, day 3, FACS", "value": "reduced"}, {"measurement": "expression of PDL1 on myeloid cells", "setting": "[4]; 10 μM, day 3, FACS", "value": "reduced"}, {"measurement": "immune activation (cluster formation)", "setting": "[4]; 10 μM, day 6", "value": "maintains"}, {"measurement": "invasion of the cells (into agarose)", "setting": "[4]; 10 μM, day 6", "value": "reduced; also recorded: prevents"}, {"measurement": "spheroid size", "setting": "[4]; 10 μM, day 6", "value": "reduced"}, {"measurement": "expression of PD1 on both CD4+ and CD8+ T cells", "setting": "[4]; 10 μM, day 6, FACS", "value": "reduces"}, {"measurement": "expression of PDL1 on myeloid cells", "setting": "[4]; 10 μM, day 6, FACS", "value": "reduces"}, {"measurement": "immune cell infiltrates", "setting": "[4]; 10 μM, day 6, FACS", "value": "increased"}, {"measurement": "plasma concentration of idronoxil", "setting": "[5]", "value": 350, "unit": "ng/mL"}, {"measurement": "expression of PD1 on CD4+ T cells", "setting": "[6]; 10 μM, day 3, FACS", "value": "reduces"}, {"measurement": "expression of PDL1 on myeloid cells", "setting": "[6]; 10 μM, day 3, FACS", "value": "reduces"}, {"measurement": "number of myeloid cells", "setting": "[6]; 10 μM, day 3, FACS", "value": "reduces"}, {"measurement": "3D spheroid size", "setting": "[6]; 10 μM, day 6", "value": "reduced"}, {"measurement": "immune function of the cells (cluster formation)", "setting": "[6]; 10 μM, day 6", "value": "maintained"}, {"measurement": "number of tumor cells", "setting": "[6]; 10 μM, day 6, FACS", "value": "reduces"}, {"measurement": "3D spheroid size", "setting": "[6]; day 3", "value": "reduced"}, {"measurement": "immune activation (cluster formation)", "setting": "[6]; day 3", "value": "induced or maintained"}, {"measurement": "expression of PD1 on both CD4+ and CD8+ T cells", "setting": "[6]; day 6, especially at 10 μM, FACS", "value": "reduces"}, {"measurement": "PDL1 expression by myeloid cells", "setting": "[6]; day 6, idronoxil in general, FACS", "value": "strongly reduces"}]}
